# Test results published in patent publication US12540137B2, “N-1 branched alkyl ether substituted imidazo[4,5-c]quinoline compounds, compositions, and methods” (Solventum Intellectual Properties Company, priority 2018, dated 2026).
# What was measured:
# [1] = biological target: T1, human TLR7 (Homo sapiens, UniProt Q9NYK1); assay: TLR activation, HEK-BLUE-hTLR7 SEAP reporter cells; assay type: cell-based; details: 16-20 hours, SEAP response at least 2× vehicle control, tested 0.01-30 micromolar
# T1 construct: host or cells: HEK293 (HEK-BLUE-hTLR7)
# T1 sequence (Q9NYK1 27-1049): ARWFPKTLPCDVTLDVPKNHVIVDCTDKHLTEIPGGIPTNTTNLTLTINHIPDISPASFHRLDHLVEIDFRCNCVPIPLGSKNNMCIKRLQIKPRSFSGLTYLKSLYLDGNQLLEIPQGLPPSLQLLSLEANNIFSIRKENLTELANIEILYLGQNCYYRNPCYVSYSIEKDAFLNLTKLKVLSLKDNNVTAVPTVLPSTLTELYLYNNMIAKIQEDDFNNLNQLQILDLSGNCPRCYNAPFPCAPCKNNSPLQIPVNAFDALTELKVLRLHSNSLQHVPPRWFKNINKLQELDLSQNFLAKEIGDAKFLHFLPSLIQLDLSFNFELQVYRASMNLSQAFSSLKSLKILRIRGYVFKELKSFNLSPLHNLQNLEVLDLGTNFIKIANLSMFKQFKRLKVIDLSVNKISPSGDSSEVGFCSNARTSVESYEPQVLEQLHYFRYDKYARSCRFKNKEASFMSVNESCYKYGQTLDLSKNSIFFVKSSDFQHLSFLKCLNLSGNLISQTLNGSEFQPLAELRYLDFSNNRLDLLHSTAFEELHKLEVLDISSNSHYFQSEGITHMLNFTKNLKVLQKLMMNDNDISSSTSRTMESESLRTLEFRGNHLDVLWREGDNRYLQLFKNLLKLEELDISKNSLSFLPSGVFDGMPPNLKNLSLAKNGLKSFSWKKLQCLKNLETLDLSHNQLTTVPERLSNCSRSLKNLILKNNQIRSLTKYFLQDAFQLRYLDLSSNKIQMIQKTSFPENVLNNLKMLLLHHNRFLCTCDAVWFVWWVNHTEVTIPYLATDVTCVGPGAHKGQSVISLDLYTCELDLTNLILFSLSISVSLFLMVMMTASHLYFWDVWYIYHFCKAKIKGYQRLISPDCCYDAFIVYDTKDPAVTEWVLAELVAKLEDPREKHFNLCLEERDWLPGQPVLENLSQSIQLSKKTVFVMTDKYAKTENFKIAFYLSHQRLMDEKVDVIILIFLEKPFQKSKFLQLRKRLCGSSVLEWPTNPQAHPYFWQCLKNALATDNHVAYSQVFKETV
# Method: (§1) HEK-BLUE-hTLR7 or hTLR8 reporter cells were obtained from InvivoGen, San Diego, CA. According to the manufacturer's description, these reporter cells were prepared by co-transfection of HEK293 cells with an inducible secreted embryonic alkaline phosphatase (SEAP) reporter gene and either the human TLR7 or TLR8 gene. The SEAP reporter gene was placed under the control of an IFN−β minimal promoter fused to five NF-κB and AP-1-binding sites. In the presence of a TLR ligand, activation of NF-κB and AP-1 occurs, resulting in a corresponding increase in SEAP levels.
# (§2) In the assay, the HEK cells were grown and maintained using standard cell culture techniques in a growth medium that contained Dulbecco's Modified Eagle Medium (ThermoFisher Scientific Incorporated, Waltham, MA) supplemented with 1% penicillin/streptomycin and 10% heat-inactivated Gibco fetal bovine serum (ThermoFisher Scientific). Each compound was solubilized in DMSO to create a 3 mM stock solution. The stock solution was then further diluted with the growth medium to prepare serial dilutions. Each test compound was tested at a concentration of 30, 10, 3.3, 1.1, 0.37, 0.12, 0.04, and 0.01 micromolar using a 96-well format with 5×10^4 cells and 200 microliters of growth medium per well.
# (§3) For each compound, hTLR7, hTLR8, and their respective null control HEK cells were screened. DMSO serially diluted into the growth medium served as the vehicle control. Cell culture supernatants containing the SEAP reporter were collected after an incubation period of 16-20 hours in a cell culture incubator (37° C. and 5% CO2), and either analyzed immediately or stored at −80° C. SEAP levels were measured using the colorimetric enzyme assay (QUANTI-BLUE (InvivoGen) according to manufacturer's instructions.
# (§4) Specifically, the minimum effective concentration of each compound (micromolar) was determined as the lowest concentration of the compound that produced a SEAP expression response at least 2× greater than that observed with the vehicle control wells.
# [2] = biological target: T2, human TLR8 (Homo sapiens, UniProt Q9NR97); assay: TLR activation, HEK-BLUE-hTLR8 SEAP reporter cells; assay type: cell-based; details: 16-20 hours, SEAP response at least 2× vehicle control, tested 0.01-30 micromolar
# T2 construct: host or cells: HEK293 (HEK-BLUE-hTLR8)
# T2 sequence (Q9NR97 27-1041): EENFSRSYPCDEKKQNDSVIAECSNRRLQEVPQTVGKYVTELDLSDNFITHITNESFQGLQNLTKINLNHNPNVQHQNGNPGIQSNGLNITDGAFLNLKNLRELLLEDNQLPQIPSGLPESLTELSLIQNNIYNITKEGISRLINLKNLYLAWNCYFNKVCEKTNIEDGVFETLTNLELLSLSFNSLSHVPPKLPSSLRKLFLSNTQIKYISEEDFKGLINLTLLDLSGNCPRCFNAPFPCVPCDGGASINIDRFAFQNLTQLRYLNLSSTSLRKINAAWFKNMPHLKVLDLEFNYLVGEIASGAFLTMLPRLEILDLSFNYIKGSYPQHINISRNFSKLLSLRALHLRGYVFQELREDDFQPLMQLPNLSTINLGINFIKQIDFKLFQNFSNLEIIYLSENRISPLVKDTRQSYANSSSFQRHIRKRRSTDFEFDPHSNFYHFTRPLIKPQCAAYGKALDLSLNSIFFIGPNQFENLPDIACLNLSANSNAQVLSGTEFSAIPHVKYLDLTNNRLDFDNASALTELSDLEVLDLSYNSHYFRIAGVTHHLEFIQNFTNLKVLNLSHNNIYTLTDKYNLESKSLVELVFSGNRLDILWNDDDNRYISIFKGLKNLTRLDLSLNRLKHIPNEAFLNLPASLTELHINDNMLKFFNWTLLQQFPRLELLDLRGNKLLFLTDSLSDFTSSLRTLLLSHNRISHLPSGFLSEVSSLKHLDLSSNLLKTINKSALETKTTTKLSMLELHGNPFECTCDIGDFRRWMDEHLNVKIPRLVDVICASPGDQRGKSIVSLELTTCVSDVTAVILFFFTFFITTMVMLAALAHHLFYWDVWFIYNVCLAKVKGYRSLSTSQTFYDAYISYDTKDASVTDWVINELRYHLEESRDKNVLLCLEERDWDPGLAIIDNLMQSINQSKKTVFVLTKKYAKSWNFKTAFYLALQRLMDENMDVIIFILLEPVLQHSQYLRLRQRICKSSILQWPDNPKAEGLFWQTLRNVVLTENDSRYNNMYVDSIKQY
# Method: as §1, §2, §3, §4
SMILES,MEC to Produce TLR Activation TLR 7 [1] [µM],MEC to Produce TLR Activation TLR 8 [2] [µM]
"CCOC[C@H](C(C)C)n1cnc2c(N)nc3ccccc3c21 [Example 1, 1-[(1S)-1-(ethoxymethyl)-2-methyl-propyl]imidazo[4,5-c]quinolin-4-amine]",0.12,30
"CCOC[C@@H](C(C)C)n1cnc2c(N)nc3ccccc3c21 [Example 2, 1-[(1R)-1-(ethoxymethyl)-2-methyl-propyl]imidazo[4,5-c]quinolin-4-amine]",3.3,>30
"CCOC[C@H](C(C)C)n1c(C)nc2c(N)nc3ccccc3c21 [Example 3, 1-[(1S)-1-(ethoxymethyl)-2-methyl-propyl]-2-methyl-imidazo[4,5-c]quinolin-4-amine]",1.1,30
"CCOC[C@@H](C(C)C)n1c(C)nc2c(N)nc3ccccc3c21 [Example 4, 1-[(1R)-1-(ethoxymethyl)-2-methyl-propyl]-2-methyl-imidazo[4,5-c]quinolin-4-amine]",>30,>30
"CCOC[C@@H](n1cnc2c(N)nc3ccccc3c21)C(C)(C)O [Example 5, (3R)-3-(4-aminoimidazo[4,5-c]quinolin-1-yl)-4-ethoxy-2-methyl-butan-2-ol]",≤0.01,3.3
"CCOC[C@H](n1cnc2c(N)nc3ccccc3c21)C(C)(C)O [Example 6, (3S)-3-(4-aminoimidazo[4,5-c]quinolin-1-yl)-4-ethoxy-2-methyl-butan-2-ol]",>30,>30
"CCOC[C@@H](n1c(C)nc2c(N)nc3ccccc3c21)C(C)(C)O [Example 7, (3R)-3-(4-amino-2-methyl-imidazo[4,5-c]quinolin-1-yl)-4-ethoxy-2-methyl-butan-2-ol]",0.37,1.1
"CCOC[C@@H](n1c(CC)nc2c(N)nc3ccccc3c21)C(C)(C)O [Example 8, (3R)-3-(4-amino-2-ethyl-imidazo[4,5-c]quinolin-1-yl)-4-ethoxy-2-methyl-butan-2-ol]",10,10
"CCOC[C@@H](n1cnc2c(N)nc3ccccc3c21)C(C)(C)C [Example 9, 1-[(1S)-1-(ethoxymethyl)-2,2-dimethyl-propyl]imidazo[4,5-c]quinolin-4-amine]",≤0.01,30
"CCOC[C@H](n1cnc2c(N)nc3ccccc3c21)C(C)(C)C [Example 10, 1-[(1R)-1-(ethoxymethyl)-2,2-dimethyl-propyl]imidazo[4,5-c]quinolin-4-amine]",30,>30
"COC[C@@H](n1cnc2c(N)nc3ccccc3c21)C(C)(C)C [Example 11, 1-[(1S)-1-(methoxymethyl)-2,2-dimethyl-propyl]imidazo[4,5-c]quinolin-4-amine]",0.04,>30
"CCOC[C@@H](n1cnc2c(N)nc3ccccc3c21)C(O)(CC)CC [Example 12, (2R)-2-(4-aminoimidazo[4,5-c]quinolin-1-yl)-1-ethoxy-3-ethyl-pentan-3-ol]",0.04,30
"CCO[C@@H](C)[C@@H](n1cnc2c(N)nc3ccccc3c21)C(C)(C)O [Example 13, (3R,4S)-3-(4-aminoimidazo[4,5-c]quinolin-1-yl)-4-ethoxy-2-methyl-pentan-2-ol]",3.3,10
